Results reported in ChEMBL document CHEMBL4800722, “Data for DCP probe BI 605906” (2021).

Assays:
[1] = target: Phosphodiesterase 3 (Homo sapiens) (UniProt Q14432+Q13370); experiment: PDE-III/HU Eurofins SafetyScreen44 (BI); type: protein assay; settings: Compound concentration 10.0 uM
[2] = target: AMPK alpha2/beta2/gamma1 (Homo sapiens) (UniProt P54646+O43741+P54619); experiment: AMPK (A2/B2/G1) Invitrogen Lab (UK) kinase screen (BI); type: protein-complex assay; settings: Compound concentration 1.0 uM
[3] = target: Bone morphogenetic protein receptor type-1B (Homo sapiens) (UniProt O00238); experiment: BMPR1B (ALK6) Invitrogen Lab (UK) kinase screen (BI); settings: Compound concentration 1.0 uM
[4] = target: Cyclin-dependent kinase 13/Cyclin-K (Homo sapiens) (UniProt Q14004+O75909); experiment: CDK13/CYCLIN K Invitrogen Lab (UK) kinase screen (BI); type: protein-complex assay; settings: Compound concentration 1.0 uM
[5] = target: Cyclin-dependent kinase 14 (Homo sapiens) (UniProt O94921); experiment: CDK14 (PFTK1)/CYC Invitrogen Lab (UK) kinase screen (BI); settings: Compound concentration 1.0 uM
[6] = target: Serine/threonine-protein kinase B-raf (Homo sapiens) (UniProt P15056); experiment: BRAF Invitrogen Lab (UK) kinase screen (BI); settings: Compound concentration 1.0 uM
[7] = target: Ephrin type-A receptor 3 (Homo sapiens) (UniProt P29320); experiment: EPHA3 Invitrogen Lab (UK) kinase screen (BI); settings: Compound concentration 1.0 uM
[8] = target: Maternal embryonic leucine zipper kinase (Homo sapiens) (UniProt Q14680); experiment: MELK Invitrogen Lab (UK) kinase screen (BI); settings: Compound concentration 1.0 uM
[9] = target: PI3K p110 beta/p85 alpha (Homo sapiens) (UniProt P27986+P42338); experiment: PIK3CBPIK3RI Invitrogen Lab (UK) kinase screen (BI); type: protein-complex assay; settings: Compound concentration 1.0 uM
[10] = target: Protein kinase C alpha type (Homo sapiens) (UniProt P17252); experiment: PRKCA Invitrogen Lab (UK) kinase screen (BI); settings: Compound concentration 1.0 uM
[11] = target: Serine/threonine-protein kinase 17A (Homo sapiens) (UniProt Q9UEE5); experiment: STK17A Invitrogen Lab (UK) kinase screen (BI); settings: Compound concentration 1.0 uM
[12] = target: Serine/threonine-protein kinase 4 (Homo sapiens) (UniProt Q13043); experiment: STK4 Invitrogen Lab (UK) kinase screen (BI); settings: Compound concentration 1.0 uM
[13] = target: Serine/threonine-protein kinase Chk2 (Homo sapiens) (UniProt O96017); experiment: CHK2 DUNDEE kinase screen (BI); settings: Compound concentration 10.0 uM
[14] = target: Ribosomal protein S6 kinase alpha-3 (Homo sapiens) (UniProt P51812); experiment: MAPKAP-K1B DUNDEE kinase screen (BI); settings: Compound concentration 10.0 uM
[15] = target: Ribosomal protein S6 kinase alpha-1 (Homo sapiens) (UniProt Q15418); experiment: MAPKAPK1A DUNDEE kinase screen (BI); settings: Rattus norvegicus; Compound concentration 10.0 uM
[16] = target: Dual specificity mitogen-activated protein kinase kinase 1 (Homo sapiens) (UniProt Q02750); experiment: MKK1 DUNDEE kinase screen (BI); settings: Oryctolagus cuniculus; Compound concentration 10.0 uM
[17] = target: 5-hydroxytryptamine receptor 1D (Homo sapiens) (UniProt P28221); settings: Compound concentration 10.0 uM
[18] = target: Delta-type opioid receptor (Homo sapiens) (UniProt P41143); settings: Compound concentration 10.0 uM
[19] = target: Alpha-1B adrenergic receptor (Homo sapiens) (UniProt P35368); settings: Compound concentration 10.0 uM
[20] = target: Alpha-1D adrenergic receptor (Homo sapiens) (UniProt P25100); settings: Compound concentration 10.0 uM
[21] = target: D(2) dopamine receptor (Homo sapiens) (UniProt P14416); settings: Compound concentration 10.0 uM
[22] = target: Cyclin-dependent kinase 9 (Homo sapiens) (UniProt P50750); settings: Compound concentration 1.0 uM
[23] = target: TRAF2 and NCK-interacting protein kinase (Homo sapiens) (UniProt Q9UKE5); settings: Compound concentration 1.0 uM
[24] = target: Serine/threonine-protein kinase ULK1 (Homo sapiens) (UniProt O75385); settings: Compound concentration 1.0 uM
[25] = target: T1, Serine/threonine-protein kinase Chk1 (Homo sapiens) (UniProt O14757)
T1 sequence (whole entry): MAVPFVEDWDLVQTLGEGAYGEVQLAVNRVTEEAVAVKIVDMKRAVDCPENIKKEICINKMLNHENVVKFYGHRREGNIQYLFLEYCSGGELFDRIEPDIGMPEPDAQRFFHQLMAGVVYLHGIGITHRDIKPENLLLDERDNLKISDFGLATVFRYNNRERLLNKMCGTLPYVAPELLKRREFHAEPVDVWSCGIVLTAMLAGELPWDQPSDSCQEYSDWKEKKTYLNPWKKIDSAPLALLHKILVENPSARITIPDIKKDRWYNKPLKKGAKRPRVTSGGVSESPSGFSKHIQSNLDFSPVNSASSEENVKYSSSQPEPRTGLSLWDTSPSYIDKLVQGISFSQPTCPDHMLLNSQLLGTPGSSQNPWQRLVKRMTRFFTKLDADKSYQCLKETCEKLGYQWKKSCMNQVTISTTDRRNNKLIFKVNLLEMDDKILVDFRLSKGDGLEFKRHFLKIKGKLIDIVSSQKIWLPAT

[26] = target: Casein kinase I isoform gamma-3 (Homo sapiens) (UniProt Q9Y6M4); settings: Compound concentration 1.0 uM
[27] = target: Ephrin type-A receptor 5 (Homo sapiens) (UniProt P54756); settings: Compound concentration 1.0 uM
Sequence of Ephrin type-A receptor 5 (Homo sapiens) (P54756 whole entry): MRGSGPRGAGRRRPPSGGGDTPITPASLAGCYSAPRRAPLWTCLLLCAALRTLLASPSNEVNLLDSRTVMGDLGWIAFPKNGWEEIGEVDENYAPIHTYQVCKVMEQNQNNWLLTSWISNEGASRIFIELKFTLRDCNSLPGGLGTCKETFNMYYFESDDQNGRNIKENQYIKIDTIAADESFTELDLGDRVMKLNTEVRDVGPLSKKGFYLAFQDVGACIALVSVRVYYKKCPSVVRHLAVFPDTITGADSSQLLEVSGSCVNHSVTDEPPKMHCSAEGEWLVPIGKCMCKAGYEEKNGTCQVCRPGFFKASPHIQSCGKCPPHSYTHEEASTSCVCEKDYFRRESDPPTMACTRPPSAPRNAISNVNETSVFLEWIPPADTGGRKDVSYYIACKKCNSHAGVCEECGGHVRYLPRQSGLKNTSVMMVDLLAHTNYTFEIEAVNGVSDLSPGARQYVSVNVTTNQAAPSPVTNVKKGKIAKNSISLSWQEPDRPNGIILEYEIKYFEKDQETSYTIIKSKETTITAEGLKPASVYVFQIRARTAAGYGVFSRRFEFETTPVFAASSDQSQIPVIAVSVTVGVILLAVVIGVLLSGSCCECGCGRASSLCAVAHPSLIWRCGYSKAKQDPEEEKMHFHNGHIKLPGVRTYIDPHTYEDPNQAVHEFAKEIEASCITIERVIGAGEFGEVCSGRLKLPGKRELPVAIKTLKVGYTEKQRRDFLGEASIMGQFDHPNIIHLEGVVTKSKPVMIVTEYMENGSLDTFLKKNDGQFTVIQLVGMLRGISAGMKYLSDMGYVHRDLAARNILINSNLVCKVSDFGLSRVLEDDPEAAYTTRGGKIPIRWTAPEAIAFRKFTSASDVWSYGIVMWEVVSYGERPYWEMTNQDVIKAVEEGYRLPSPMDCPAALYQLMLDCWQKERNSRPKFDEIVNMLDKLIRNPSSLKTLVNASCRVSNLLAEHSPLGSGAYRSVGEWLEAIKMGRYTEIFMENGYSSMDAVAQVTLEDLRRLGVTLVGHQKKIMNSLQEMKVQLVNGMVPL

[28] = target: Receptor tyrosine-protein kinase erbB-4 (Homo sapiens) (UniProt Q15303); settings: Compound concentration 1.0 uM
[29] = target: Tyrosine-protein kinase Fes/Fps (Homo sapiens) (UniProt P07332); settings: Compound concentration 1.0 uM
[30] = target: Fibroblast growth factor receptor 2 (Homo sapiens) (UniProt P21802); settings: Compound concentration 1.0 uM
Sequence of Fibroblast growth factor receptor 2 (Homo sapiens) (P21802 22-821 limits assumed): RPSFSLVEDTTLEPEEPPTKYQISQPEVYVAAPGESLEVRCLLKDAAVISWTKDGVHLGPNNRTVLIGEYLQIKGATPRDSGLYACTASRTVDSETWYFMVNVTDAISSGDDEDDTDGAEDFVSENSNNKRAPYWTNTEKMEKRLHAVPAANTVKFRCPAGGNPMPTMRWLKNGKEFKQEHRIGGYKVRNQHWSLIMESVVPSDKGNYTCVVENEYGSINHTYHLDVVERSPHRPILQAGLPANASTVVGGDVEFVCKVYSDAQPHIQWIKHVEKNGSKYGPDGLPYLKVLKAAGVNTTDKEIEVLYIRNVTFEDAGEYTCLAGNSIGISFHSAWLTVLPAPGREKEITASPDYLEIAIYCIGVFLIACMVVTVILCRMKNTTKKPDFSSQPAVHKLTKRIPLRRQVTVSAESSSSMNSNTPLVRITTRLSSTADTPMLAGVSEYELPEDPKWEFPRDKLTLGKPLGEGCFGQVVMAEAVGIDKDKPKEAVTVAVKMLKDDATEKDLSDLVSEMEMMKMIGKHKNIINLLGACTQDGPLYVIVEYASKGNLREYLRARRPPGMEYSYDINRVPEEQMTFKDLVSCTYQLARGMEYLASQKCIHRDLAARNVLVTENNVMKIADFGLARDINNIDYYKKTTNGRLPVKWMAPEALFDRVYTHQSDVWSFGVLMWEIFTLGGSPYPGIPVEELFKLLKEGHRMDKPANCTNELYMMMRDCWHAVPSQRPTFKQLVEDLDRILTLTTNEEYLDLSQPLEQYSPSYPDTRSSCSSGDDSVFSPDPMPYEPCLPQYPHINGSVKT

[31] = target: Mitogen-activated protein kinase kinase kinase 2 (Homo sapiens) (UniProt Q9Y2U5); settings: Compound concentration 1.0 uM
[32] = target: Mitogen-activated protein kinase 14 (Homo sapiens) (UniProt Q16539)
Sequence of Mitogen-activated protein kinase 14 (Homo sapiens) (Q16539 whole entry): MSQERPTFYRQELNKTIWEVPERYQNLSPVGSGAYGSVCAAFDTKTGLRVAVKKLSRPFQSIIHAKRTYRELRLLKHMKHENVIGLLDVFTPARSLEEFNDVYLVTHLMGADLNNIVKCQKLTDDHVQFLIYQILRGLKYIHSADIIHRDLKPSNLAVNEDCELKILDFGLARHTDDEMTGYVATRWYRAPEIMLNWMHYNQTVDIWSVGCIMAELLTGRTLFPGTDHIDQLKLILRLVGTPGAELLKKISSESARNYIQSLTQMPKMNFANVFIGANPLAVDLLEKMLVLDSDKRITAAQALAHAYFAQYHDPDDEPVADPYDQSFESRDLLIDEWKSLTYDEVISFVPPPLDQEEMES

[33] = target: Serine/threonine-protein kinase 26 (Homo sapiens) (UniProt Q9P289); settings: Compound concentration 1.0 uM
Sequence of Serine/threonine-protein kinase 26 (Homo sapiens) (Q9P289 2-416 limits assumed): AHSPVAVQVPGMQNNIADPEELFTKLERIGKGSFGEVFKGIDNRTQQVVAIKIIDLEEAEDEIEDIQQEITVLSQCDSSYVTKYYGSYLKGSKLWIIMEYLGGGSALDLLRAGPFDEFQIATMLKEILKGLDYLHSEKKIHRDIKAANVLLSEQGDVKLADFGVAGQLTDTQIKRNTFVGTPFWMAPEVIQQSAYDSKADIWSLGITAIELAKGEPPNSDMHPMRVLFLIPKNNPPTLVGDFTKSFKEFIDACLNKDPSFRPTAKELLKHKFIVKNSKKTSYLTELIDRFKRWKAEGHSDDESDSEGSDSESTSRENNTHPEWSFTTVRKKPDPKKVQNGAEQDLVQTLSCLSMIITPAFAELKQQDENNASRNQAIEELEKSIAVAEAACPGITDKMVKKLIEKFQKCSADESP

[34] = target: Myosin light chain kinase, smooth muscle (Homo sapiens) (UniProt Q15746); settings: Compound concentration 1.0 uM
Sequence of Myosin light chain kinase, smooth muscle (Homo sapiens) (Q15746 whole entry): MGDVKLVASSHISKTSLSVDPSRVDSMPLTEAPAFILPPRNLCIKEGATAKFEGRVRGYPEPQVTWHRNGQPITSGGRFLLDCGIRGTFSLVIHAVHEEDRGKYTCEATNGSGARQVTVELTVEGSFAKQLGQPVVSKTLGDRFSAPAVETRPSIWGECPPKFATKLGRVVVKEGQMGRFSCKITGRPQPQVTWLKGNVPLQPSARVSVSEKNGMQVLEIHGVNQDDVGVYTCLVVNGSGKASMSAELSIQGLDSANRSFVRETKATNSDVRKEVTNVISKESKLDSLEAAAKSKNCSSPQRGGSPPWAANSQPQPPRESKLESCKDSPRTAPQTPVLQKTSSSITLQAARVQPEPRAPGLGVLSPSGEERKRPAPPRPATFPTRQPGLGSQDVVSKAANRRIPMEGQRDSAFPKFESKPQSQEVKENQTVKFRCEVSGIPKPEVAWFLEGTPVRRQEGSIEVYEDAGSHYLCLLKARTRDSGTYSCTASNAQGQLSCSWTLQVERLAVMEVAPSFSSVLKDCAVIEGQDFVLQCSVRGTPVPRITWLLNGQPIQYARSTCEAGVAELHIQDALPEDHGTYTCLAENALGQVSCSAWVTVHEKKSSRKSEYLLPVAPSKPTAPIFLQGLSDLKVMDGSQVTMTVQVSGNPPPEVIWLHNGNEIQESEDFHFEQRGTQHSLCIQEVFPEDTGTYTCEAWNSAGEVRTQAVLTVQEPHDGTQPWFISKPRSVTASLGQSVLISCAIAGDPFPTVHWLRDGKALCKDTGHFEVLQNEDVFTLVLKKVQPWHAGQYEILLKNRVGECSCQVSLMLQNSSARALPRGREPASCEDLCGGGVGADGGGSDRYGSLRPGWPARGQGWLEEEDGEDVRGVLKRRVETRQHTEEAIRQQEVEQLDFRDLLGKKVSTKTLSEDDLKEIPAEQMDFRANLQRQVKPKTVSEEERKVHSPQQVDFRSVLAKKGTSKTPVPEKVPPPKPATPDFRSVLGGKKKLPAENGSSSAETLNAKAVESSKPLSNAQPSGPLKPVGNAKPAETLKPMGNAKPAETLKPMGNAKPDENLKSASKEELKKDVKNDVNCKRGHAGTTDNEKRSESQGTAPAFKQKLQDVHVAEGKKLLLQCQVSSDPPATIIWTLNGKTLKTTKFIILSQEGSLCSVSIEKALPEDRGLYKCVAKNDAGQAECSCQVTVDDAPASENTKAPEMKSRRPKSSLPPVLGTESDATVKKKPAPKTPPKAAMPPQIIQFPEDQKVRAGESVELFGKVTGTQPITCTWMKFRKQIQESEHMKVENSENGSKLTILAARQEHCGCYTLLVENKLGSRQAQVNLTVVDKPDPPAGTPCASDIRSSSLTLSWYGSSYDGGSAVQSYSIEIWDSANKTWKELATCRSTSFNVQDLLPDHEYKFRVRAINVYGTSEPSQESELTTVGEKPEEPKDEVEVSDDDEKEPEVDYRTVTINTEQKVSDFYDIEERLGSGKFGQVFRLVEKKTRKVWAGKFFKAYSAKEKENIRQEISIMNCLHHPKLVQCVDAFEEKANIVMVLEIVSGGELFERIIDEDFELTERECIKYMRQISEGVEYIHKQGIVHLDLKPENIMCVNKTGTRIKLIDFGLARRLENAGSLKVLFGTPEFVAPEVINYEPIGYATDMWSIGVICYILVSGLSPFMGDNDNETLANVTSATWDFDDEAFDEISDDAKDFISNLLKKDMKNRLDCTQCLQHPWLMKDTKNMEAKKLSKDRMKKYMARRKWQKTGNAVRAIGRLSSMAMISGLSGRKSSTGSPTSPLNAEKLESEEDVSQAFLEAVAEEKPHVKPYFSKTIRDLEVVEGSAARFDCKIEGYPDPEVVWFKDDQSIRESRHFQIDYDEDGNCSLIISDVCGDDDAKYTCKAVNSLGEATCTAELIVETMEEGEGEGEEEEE

[35] = target: Serine/threonine-protein kinase Nek2 (Homo sapiens) (UniProt P51955); settings: Compound concentration 1.0 uM
Sequence of Serine/threonine-protein kinase Nek2 (Homo sapiens) (P51955 whole entry): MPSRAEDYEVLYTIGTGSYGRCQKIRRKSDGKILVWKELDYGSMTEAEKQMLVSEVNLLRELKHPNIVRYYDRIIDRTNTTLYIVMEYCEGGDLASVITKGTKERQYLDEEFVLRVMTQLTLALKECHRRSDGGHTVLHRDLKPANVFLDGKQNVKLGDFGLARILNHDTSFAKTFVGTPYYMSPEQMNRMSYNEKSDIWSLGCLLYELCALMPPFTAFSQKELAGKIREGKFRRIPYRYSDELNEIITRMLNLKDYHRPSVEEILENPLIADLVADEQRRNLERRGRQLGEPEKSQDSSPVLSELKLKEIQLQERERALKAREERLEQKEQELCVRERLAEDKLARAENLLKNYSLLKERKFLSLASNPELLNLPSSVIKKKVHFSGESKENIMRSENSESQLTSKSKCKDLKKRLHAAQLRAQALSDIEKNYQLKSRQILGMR

[36] = target: Serine/threonine-protein kinase pim-2 (Homo sapiens) (UniProt Q9P1W9); settings: Compound concentration 10.0 uM
[37] = target: Serine/threonine-protein kinase Sgk1 (Homo sapiens) (UniProt O00141); settings: Compound concentration 10.0 uM

## CCC(F)(F)c1cc(N2CCC(S(C)(=O)=O)CC2)nc2sc(C(N)=O)c(N)c12 [BI-605906]
[1]
  residual activity: 31%
[2]
  residual activity: 88%
[3]
  residual activity: 74%
[4]
  residual activity: 85%
[5]
  residual activity: 70%
[6]
  residual activity: 72%
[7]
  residual activity: 85%
[8]
  residual activity: 103%
[9]
  residual activity: 124%
[10]
  residual activity: 85%
[11]
  residual activity: 80%
[12]
  residual activity: 102%
[13]
  residual activity: 49.7%
[14]
  residual activity: 78.2%
[15]
  residual activity: 77.5%
[16]
  residual activity: 19.3%
[17]
  inhibition: 26.9%
[18]
  inhibition: 3.97%
[19]
  inhibition: -0.02%
[20]
  inhibition: 36.7%
[21]
  residual activity: 100%
[22]
  residual activity: 91%
[23]
  residual activity: 99%
[24]
  residual activity: 94%
[25]; Compound concentration 1.0 uM
  residual activity: 95%
[25]; Compound concentration 10.0 uM
  residual activity: 89%
[26]
  residual activity: 99%
[27]
  residual activity: 94%
[28]
  residual activity: 94%
[29]
  residual activity: 91%
[30]
  residual activity: 94%
[31]
  residual activity: 92%
[32]; Compound concentration 1.0 uM
  residual activity: 92%
[32]; Compound concentration 10.0 uM
  residual activity: 60%
[33]
  residual activity: 109%
[34]
  residual activity: 91%
[35]
  residual activity: 93%
[36]
  residual activity: 101%
[37]
  residual activity: 101%
